Laboratory results: EP0378755B1, “Heterocyclically substituted alpha-aryl acryl acid methyl esters and their use” (BASF Aktiengesellschaft, priority 1988, dated 1990)

Assays:
Type in all cases: in vivo
[1] = system: Septoria nodorum; experiment: Efficacy against Septoria nodorum on wheat plants, protective spray; conditions: 0,05 gew.%ige Spritzbrühe; wheat "Frühgold"; inoculated 20 h after spraying, assessed after one week
Description: Wirksamkeit gegen Septoria nodorum
Weizenpflanzen der Sorte "Frühgold" wurden im Ein-Blatt-Stadium mit wäßriger Wirkstoffaufbereitung, die 80 % Wirkstoff und 20 % Emulgiermittel in der Trockensubstanz enthielt, bis zur Tropfnässe besprüht. 20 Stunden nach dem Antrocknen des Spritzbelages wurden die Pflanzen mit einer wäßrigen Sporensuspension von Septoria nodorum bis zur Tröpfchenbildung inokuliert und für eine Woche in eine Klimakammer bei Temperaturen zwischen 17 und 19°C und einer relativen Luftfeuchtigkeit von ungefähr 90 bis 95 % gestellt. Dann wurde das Ausmaß der Symptomentwicklung ermittelt.

[2] = system: Plasmopara viticola; experiment: Efficacy against Plasmopara viticola on potted vine leaves, protective spray; conditions: 0,0125 gew.%ige Spritzbrühe; vines "Müller Thurgau"; infected 8 days after spraying
Source text: Wirksamkeit gegen Plasmopara viticola
Blätter von Topfreben der Sorte "Müller Thurgau" wurden mit wäßriger Spritzbrühe, die 80 % Wirkstoff und 20 % Emulgiermittel in der Trockensubstanz enthielt, besprüht. Um die Wirkungsdauer der Wirkstoffe beurteilen zu können, wurden die Pflanzen nach dem Antrocknen des Spritzbelages 8 Tage im Gewächshaus aufgestellt. Erst dann wurden die Blätter mit einer Zoosporenaufschwemmung von Plasmopara viticola (Rebenperonospora) infiziert. Danach wurden die Reben zunächst für 48 Stunden in einer wasserdampfgesättigten Kammer bei 24°C und anschließend für 5 Tage in einem Gewächshaus mit Temperaturen zwischen 20 und 30°C aufgestellt. Nach dieser Zeit wurden die Pflanzen zur Beschleunigung des Sporangienträgerausbruches abermals für 16 Stunden in der feuchten Kammer aufgestellt. Dann erfolgte die Beurteilung des Ausmaßes des Pilzausbruches auf den Blattunterseiten.

[3] = system: Pyrenophora teres; experiment: Efficacy against Pyrenophora teres on barley seedlings, protective spray; conditions: 0,0125 gew.%ige Spritzbrühe; barley "Igri"; inoculated 24 h after spraying
Description: Wirksamkeit gegen Pyrenophora teres
Gerstenkeimlinge der Sorte "Igri" wurden im Zweiblattstadium mit wäßrigen Suspensionen, die 80 % Wirkstoff und 20 % Emulgator in der Trockensubstanz enthielten, tropfnaß gespritzt. Nach 24 Stunden wurden die Pflanzen mit einer Sporensuspension des Pilzes Pyrenophora teres inokuliert und für 48 Stunden in eine Klimakammer mit hoher Luftfeuchtigkeit bei 18°C gestellt. Anschließend wurden die Pflanzen im Gewächshaus bei 20 bis 22°C und 70 % relativer Luftfeuchtigkeit für weitere 5 Tage kultiviert. Dann wurde das Ausmaß des Befalls ermittelt.

[4] = system: Prodenia litura; experiment: Prodenia litura feeding test on dipped maize pieces; conditions: after 24 h
Description: Prodenia litura, ägypt. Baumwollwurm
Die Versuche wurden in 250 ml Plastikbechern durchgeführt. Dabei setzte man 2 Raupen in die Gefäße und bot Stücke von Maispflanzen, die man für 5 Sekunden in die wäßrige Wirkstoffaufbereitung getaucht hatte, als Futter an. Wirkstoffgehalt in ppm. Nach 24 Stunden beurteilte man die Mortalitätsrate in %.

[5] = system: Plutella maculipennis; experiment: Plutella maculipennis contact test on dipped cabbage leaves; conditions: after 48 h, 4th instar larvae
Description: Plutella maculipennis (Kohlschabe)
(§1) Versuchsart: Kontaktwirkung
Junge Kohlblätter wurden 3 sec. in die wäßrige Aufbereitung der Prüfsubstanz getaucht (Wirkstoffgehalt in ppm) und auf einen mit 0,5 ml Wasser angefeuchteten Rundfilter (Φ 9 cm) in eine Glasschale gelegt (Φ 10 cm). Darauf wurde das Blatt mit 10 Raupen im 4. Larvenstadium besetzt und die Glasschale geschlossen. Nach 48 Stunden beurteilte man die Mortalität in %.

[6] = system: Musca domestica; experiment: Musca domestica continuous contact test in glass dish; conditions: after 4 h
Description: Musca domestica (Stubenfliegen)
Versuchsart: Dauerkontakt
Beide Teile einer Glasschale von 10 cm Durchmesser wurden mit insgesamt 1 ml der acetonischen Lösung der Wirkstoffe benetzt. Wirkstoffgehalt der Lösung in ppm. Nach Verdunsten des Lösungsmittels brachte man je 10 Fliegen in die Schalen, schloß sie und zählte nach 4 Stunden die Tiere, die sich in Rückenlage befanden und bestimmte die Mortalitätsrate in %.

[7] = system: Ornithodorus moubata; experiment: Ornithodorus moubata (tick) contact test by dipping; conditions: after 48 h, ca. 25°C
Source text: Ornithodorus moubata (Zecke)
as §1
Verwendet wurden junge Zecken, die eine Blutmahlzeit hinter sich hatten (Durchmesser 1,5 bis 2 mm). Diese Tiere nahm man mit Hilfe eines Saugrohres einzeln auf, wobei eine starke Lichtquelle die aktiven Tiere aus den Häutungsresten trieb. Je 5 Zecken wurden in einem Papierbeutel für 5 Sekunden in die wäßrige Wirkstoffaufbereitung getaucht (Wirkstoffgehalt in ppm). Die Beutel hing man danach frei auf und ermittelte nach 48 Stunden die Wirkung. Dabei wurden die Beutel an eine starke Lichtquele (60 W-Birne) gehalten; die lebenden Tiere versuchten auszuweichen und waren leicht zu erkennen. Die Versuchstemperatur betrug ca. 25°C. Man bestimmte die Mortalität in %.

[8] = system: Tetranychus telarius; experiment: Tetranychus telarius contact test, spray test on bush beans; conditions: 120 h, after 5 days
Description: Tetranychus telarius, Rote Spinne, Kontaktwirkung, Spritzversuch
Buschbohnen in Töpfen, die das zweite Blattpaar zeigen, werden mit der wäßrigen Wirkstoffaufbereitung tropfnaß gespritzt. Die Pflanzen werden von allen Seiten mit insgesamt 50 ml Spritzbrühe besprüht. Die Pflanzen weisen einen starken Milbenbefall und reichliche Eiablage auf.
Die Wirkung wird nach 5 Tagen mittels Binokular ermittelt. Dabei wird darauf geachtet, ob alle Entwicklungsstadien der Tiere gleichmäßig erfaßt sind. Die Pflanzen stehen während der 5 Tage unter normalen Gewächshausbedingungen.

For `CO/C=C(/C(=O)OC)c1ccccc1/C=C/c1cnn(-c2ccc(F)cc2)c1` [compound 98], the “fungizide Wirkung” value [1] was 95%, the “fungizide Wirkung” value [2] was 95% and the “fungizide Wirkung” value [3] was 95%.

With `CO/C=C(/C(=O)OC)c1ccccc1/C=C/c1cnn(-c2ccc(C)cc2)c1` [compound 30] the “fungizide Wirkung” value [1] was 95%, the “fungizide Wirkung” value [2] was 95% and the “fungizide Wirkung” value [3] was 95%.

With `CO/C=C(/C(=O)OC)c1ccccc1/C=C/c1ccn(-c2ccc(Cl)cc2)c1` [Verbindung Nr. 4, Alpha-2-[2'-(N-para-Chlorphenyl-pyrrol-3''-yl)-ethen-1'-yl]-phenyl-β-methoxy-acrylsäuremethylester] the mortality at 40 ppm ([4]; 40 ppm) was 100%, the “fungizide Wirkung” value [1] was 95% and the mortality at 100 ppm ([5]; 100 ppm) was 100%. The mortality at 2 ppm [6] was 100% and the “% Mort.” value ([7]; 400 ppm) was 80%.

With `CO/C=C(/C(=O)OC)c1ccccc1/C=C/c1cc(-c2ccc(C#N)cc2)no1` [compound 46] the mortality at 400 ppm ([8]; 400 ppm) was 100%, the “fungizide Wirkung” value [2] was 95% and the “fungizide Wirkung” value [3] was 95%.

With `CO/C=C(/C(=O)OC)c1ccccc1/C=C/c1cnn(-c2ccc(Cl)cc2)c1` [compound 31] the “fungizide Wirkung” value [1] was 95%, the “fungizide Wirkung” value [2] was 95% and the “fungizide Wirkung” value [3] was 95%.

`CO/C=C(/C(=O)OC)c1ccccc1/C=C/c1cc(C)no1` [compound 100] was tested, and the “fungizide Wirkung” value [2] was 95% and the “fungizide Wirkung” value [3] was 95%.

Work on `COC=C(C(=O)OC)c1ccccc1C=Cc1ccc(Cl)cc1` [A, 2-(β-Methoxy-α-methoxycarbonylvinyl)-4'-chlor-stilben] yielded a mortality at 1000 ppm [4] of 0%, a mortality at 1000 ppm [5] of 0% and a mortality at 2 ppm [6] of 0%. For the same molecule, the “% Mort.” value ([7]; 1000 ppm) was 0%.

For `COC=C(C(=O)OC)c1ccccc1Oc1cncc(Cl)n1` [C, α-2-(6-Chlorpyrazin-2-oxy)-phenyl-β-methoxy-acrylsäuremethylester, reference compound], the “fungizide Wirkung” value [2] was 60% and the “fungizide Wirkung” value [3] was 55%.

With `CO/C=C(/C(=O)OC)c1ccccc1/C=C/c1nc(-c2ccc(Cl)cc2)no1` [compound 84] the “fungizide Wirkung” value [1] was 95% and the “fungizide Wirkung” value [3] was 95%.

With `CO/C=C(/C(=O)OC)c1ccccc1/C=C/c1cnn(-c2ccc(Br)cc2)c1` [compound 99] the “fungizide Wirkung” value [1] was 95%, the “fungizide Wirkung” value [2] was 95% and the “fungizide Wirkung” value [3] was 95%.

For `COC=C(C(=O)OC)c1ccccc1C=Cc1cc(C2CC2)no1` [Verbindung Nr. 42, Alpha-2-[2′-(3˝-Cyclopropyl-isoxazol-5˝-yl)-ethen-1′-yl]-phenyl-β-methoxy-acrylsäuremethylester], the “fungizide Wirkung” value [2] was 95%.

Molecule `COC=C(C(=O)OC)c1ccccc1Oc1nc2ccccc2o1` [B, α-[2-(Benzoxazol-2'-yl-oxy)-phenyl]-β-methoxy-acrylsäuremethylester] has a mortality at 1000 ppm ([8]; 1000 ppm) of 0%, a mortality at 1000 ppm [4] of 80% and a mortality at 200 ppm ([5]; 200 ppm) of 0%. For the same molecule, the mortality at 1000 ppm [5] was 80%, the mortality at 4 ppm ([6]; 4 ppm) was 80% and the “% Mort.” value ([7]; 1000 ppm) was 0%.

In the case of `CO/C=C(/C(=O)OC)c1ccccc1/C=C/c1cc(C(C)C)no1` [compound 41], the mortality at 100 ppm [8] is reported as 100%, the “fungizide Wirkung” value [1] is reported as 95% and the “% Mort.” value ([7]; 1000 ppm) is reported as 80%.

For `CO/C=C(/C(=O)OC)c1ccccc1/C=C/c1nnc(C(C)C)o1` [compound 69], the “fungizide Wirkung” value [1] was 95% and the “fungizide Wirkung” value [3] was 95%.

`CO/C=C(/C(=O)OC)c1ccccc1/C=C/c1cc(-c2ccccc2)no1` [compound 101] was tested, and the mortality at 100 ppm [8] was 100%, the “fungizide Wirkung” value [2] was 95% and the “% Mort.” value ([7]; 1000 ppm) was 60%.

With `CO/C=C(/C(=O)OC)c1ccccc1/C=C/c1cc(-c2c(F)cccc2Cl)no1` [compound 102] the “fungizide Wirkung” value [1] was 95%, the “fungizide Wirkung” value [2] was 95% and the “fungizide Wirkung” value [3] was 95%.

In the case of `CO/C=C(/C(=O)OC)c1ccccc1/C=C/c1cc(-c2ccc(C)cc2)no1` [compound 45], the mortality at 40 ppm ([8]; 40 ppm) is reported as 80%, the “fungizide Wirkung” value [2] is reported as 95% and the “% Mort.” value ([7]; 1000 ppm) is reported as 60%. For the same molecule, the “fungizide Wirkung” value [3] was 95%.
